From patent publication US20250387398A1, “NEW HIGH-EFFICIENCY ANTIMICROBIAL COMPOSITION” (CM4CURE S.A., priority 2023, published 2025)
Read-outs that look alike come from different tables or passages of the source.

Tests used:
[1] = system: Staphylococcus aureus (MRSA, ATCC 6538); test: Real-time microcalorimetric measurement of metabolic activity (Calscreener); type: cell-based
Procedure: Staphylococcus aureus (MRSA, ATCC 6538) was grown overnight in TSB (tryptic soy broth) medium, before being diluted 1×10^6 fold in fresh TSB. Subsequently […] aliquots of diluted bacteria suspensions were respectively supplemented with 1 and 2 mg/L of chlorhexidine (digluconate solution, 20% in H2O, Merck). […] The aqueous solution of chlorhexidine and the ethanol-based solution of triafluocyl were kept refrigerated. Chlorhexidine, triafluocyl or both, and ethanol as a vehicle were added to the bacterial suspensions to obtain the given concentrations followed by a brief vortexing. Bacterial aliquots were then distributed in the dedicated non-activated inserts of a 48-well plate and grown for 24 h or more under static conditions at 37 C using Calscreener technology to measure bacterial growth and metabolic activity in Real-Time as described in https://cordis.europa.eu/project/id/784514.
In FIG. 3, one sees the real-time microcalorimetric measurements of bacterial metabolic activity expressed as the heat flow, providing S. aureus as an example of Gram-positive bacteria strain. The line A stands for control bacteria with a vehicle at 0.66% ethanol in TSB, whereas the line B represents bacteria treated respectively with 1 mg/L of triafluocyl; C—1 mg/L of chlorhexidine; D—2 mg/L of chlorhexidine; and E—1 mg/L of chlorhexidine with 1 mg/L of triafluocyl.
Staphylococcus aureus (MRSA, ATCC 6538) was grown overnight in TSB (tryptic soy broth) medium, before being diluted 1×10^6 fold in fresh TSB. Subsequently […] aliquots of diluted bacteria suspensions were respectively supplemented with 0.25, 0.5 and 1 μg/mL of chlorhexidine (digluconate solution, 20% in H2O, Merck) or alexidine dihydrochloride (stock solution of 3 mg/mL in ethanol, Merck).
The aqueous solution of chlorhexidine and the ethanol-based solution of alexidine were kept refrigerated. Chlorhexidine, alexidine, and ethanol as a vehicle were added to the bacterial suspensions to obtain the given concentrations followed by a brief vortexing. Bacterial aliquots were then distributed in the dedicated non-activated inserts of a 48-well plate and grown for 24 h or more under static conditions at 37 C using Calscreener technology to measure bacterial growth and metabolic activity in Real-Time as described in https://cordis.europa.eu/project/id/784514.
In FIG. 4 the real-time microcalorimetric measurements of bacterial metabolic activity is expressed as the heat flow, providing S. aureus as an example. The line A stands for control bacteria with a vehicle (ethanol), whereas the line B represents bacteria treated respectively with 0.25 mg/mL of chlorhexidine; C—0.5 mg/mL of chlorhexidine; D—1 mg/mL of chlorhexidine; E—0.25 mg/mL of alexidine; F −0.5 mg/mL of alexidine; and G—1 mg/mL of alexidine.
Staphylococcus aureus (MRSA, ATCC 6538) was grown overnight in TSB (tryptic soy broth) medium, before being diluted 1×10^6 fold in fresh TSB. Subsequently […] aliquots of diluted bacteria suspensions were respectively supplemented with […] of alexidine dihydrochloride (stock solution of 3 mg/mL in ethanol, Merck). […] The ethanol-based solutions of alexidine and fluometacyl were stored at −20° C. […]
In FIG. 5 real-time microcalorimetric measurements of bacterial metabolic activity is expressed as the heat flow, providing S. aureus as an example. […]

[2] = background, cited from earlier work
Streptococcus mutans = conditions: cited from earlier work
Porphyromonas gingivalis = conditions: cited from earlier work
[3] = system: Lactobacillus acidophilus; conditions: cited from earlier work
[4] = system: Staphylococcus aureus MRSA; conditions: cited from earlier work
Candida tropicalis = conditions: cited from earlier work
Candida krusei = conditions: cited from earlier work
Fusobacterium nucleatum = conditions: cited from earlier work
[5] = system: Pseudomonas aeruginosa (PA); test: MIC in monotherapy and in combination (ISO standard 20776-1); type: cell-based
Excerpt: (§1) Summary Of MIC values for Fluometacyl (FLC)+Chlorhexidine (CHX) Tested Against MRSA, Enterococcusfaecalis (VRE), Pseudomonas aeruginosa (PA) and Candida albicans (CA).
(§2) By Minimum Inhibitory Concentration (MIC) one means the lowest concentration of antimicrobial that prevents visible growth of a microorganism (determined according to ISO standard 20776-1).
(§3) This finds an implication in combining many known antimicrobials together rather than discovering new chemical entities.

Candida albicans (CA) = test: as above; type: cell-based
Excerpt: as §1, §2, §3

[6] = system: Pseudomonas aeruginosa (ATCC 15442); test: Real-time microcalorimetric measurement of metabolic activity (Calscreener); type: cell-based
Procedure: Pseudomonas aeruginosa (ATCC 15442) was grown overnight in TSB (tryptic soy broth) medium, before being diluted 1×10^7 fold in fresh TSB. Subsequently […] aliquots of diluted bacteria suspensions were respectively supplemented with 1, 2, 4, 6, 12 and 24 mg/L of chlorhexidine (digluconate solution, 20% in H2O, Merck). The aqueous solution of chlorhexidine was kept refrigerated according to the manufacturer's technical sheet. Chlorhexidine or mQH2O as a vehicle were added to the bacterial suspensions to obtain the given concentrations followed by a brief vortexing. Bacterial aliquots were then distributed in the dedicated non-activated inserts of a 48-well plate and grown for 24 h or more under static conditions at 37 C using Calscreener technology to measure bacterial growth and metabolic activity in Real-Time as described in https://cordis.europa.eu/project/id/784514.
For the study of the combination of chlorhexidine and triafluocyl aforementioned diluted bacterial suspensions were supplemented with either chlorhexidine alone (1, 2, 4, 6, 12 mg/L) or mixed with triafluocyl (20 mg/L, Polpharma). Triafluocyl was stored in absolute ethanol in the refrigerator at a concentration of 3 mg/mL. […]
FIG. 1, illustrates a real-time microcalorimetric measurements of bacterial metabolic activity expressed as the heat flow, providing P. aeruginosa as an example. […]

[H]/N=C(\N/C(=N/[H])NCCCCCCNC(=N)NC(=N)Nc1ccc(Cl)cc1)Nc1ccc(Cl)cc1 [Chlorhexidine, chlorhexidine]
effect on growth (heat flow) ([1]; chlorhexidine 1 mg/L, FIG. 3): strong shift in a metabolic activity
effect on growth (heat flow) ([1]; chlorhexidine 1 mg/mL, FIG. 4): strong shift in a metabolic activity
solubility in water ([2]; chlorhexidine base): insoluble in water
MIC of chlorhexdine (Streptococcus mutans): 0.9 to 4 mg/L
MIC of chlorhexdine (Porphyromonas gingivalis): 0.9 mg/L
MIC of chlorhexdine [3]: 0.5 to 2 mg/L
MIC of chlorhexdine [4]: 2 to 8 mg/L
MIC of chlorhexdine ([4]; listed as chlorexhidrine): 1 to 8 mg/L
MIC of chlorhexdine ([4]; listed as chlorhexidrine): 1 to 8 mg/L
MIC of chlorhexdine (Candida tropicalis): 75 mg/L
MIC of chlorhexdine (Candida krusei): 150 mg/L
MIC of chlorhexdine (Fusobacterium nucleatum): 1.8 mg/L

CCCSc1nc(N[C@@H]2C[C@H]2c2ccc(F)c(F)c2)c2nnn([C@@H]3C[C@H](O)[C@@H](O)[C@H]3O)c2n1 [Fluometacyl, (1S,2R,3S,4R)-4-[7-[[(1R,2S)-2-(3,4-Difluorophenyl)cyclopropyl]amino]-5-(propylthio)-3H-1,2,3-triazolo[4,5-d]pyrimidin-3-yl]-1,2,3-cyclopentanetriol]
solubility in an aqueous environment or aqueous medium [2]: generally not soluble
MIC Monotherapy (X) [5]: Not detected
MIC Monotherapy (X) (Candida albicans (CA)): Not detected

CCCSc1nc(N[C@@H]2C[C@H]2c2ccc(F)c(F)c2)c2nnn([C@@H]3C[C@H](OCCO)[C@@H](O)[C@H]3O)c2n1 [Triafluocyl, (1S,2S,3R,5S)-3-[7-[(1R,2S)-2-(3,4-difluorophenyl)cyclopropylamino]-5-(propylthio)-3H-[1,2,3]-triazolo[4,5-d]pyrimidin-3-yl]-5-(2-hydroxyethoxy)-1,2-cyclopentanediol]
effect on growth (heat flow) ([1]; triafluocyl 1 mg/L, FIG. 3): doesn't affect the growth
solubility in an aqueous environment or aqueous medium [2]: generally not soluble
effect on growth (heat flow) ([6]; triafluocyl 20 mg/L, FIG. 2): does not inhibit the growth

alexidine
effect on growth (heat flow) ([1]; alexidine 1 mg/mL, FIG. 4): full growth inhibition
effect on growth (heat flow), compared with chlorhexidine ([1]; alexidine 0.25 and 0.5 mg/mL, FIG. 4): noticeably stronger effect
effect on growth (heat flow) ([6]; alexidine 4 mg/mL, FIG. 6): strong growth inhibition
